For 31 compounds, IC50 results are on record in patent US9216999B2, “Substituted pyrrolo[2,3-h][1,6]naphthyridines and compositions thereof as JAK inhibitors” (priority 2011, dated 2015).

Where two headings read alike, the source gives them in different places.

Common to all, as to assay type: biochemical
One assay concerns the target JAK2 (Homo sapiens (Human), UniProt O60674). Put plainly: Enzyme assay (Assay Example^a 1), JAK2.
Another assay has as its target JAK3 (Homo sapiens (Human), UniProt P52333). Put plainly: Enzyme assay (Assay Example^a 1), JAK3.
The next assay concerns the target JAK1 (Homo sapiens (Human), UniProt P23458). Briefly: Enzyme assay (Assay Example^a 1), JAK1. The note with it: ATP 100 μM.
The target of the next assay is Tyk2 (Homo sapiens (Human), UniProt P29597). Briefly: Enzyme assay (Assay Example^a 1), Tyk2. The note with it: ATP 100 μM.
Sequence of Tyk2 (P29597 whole entry): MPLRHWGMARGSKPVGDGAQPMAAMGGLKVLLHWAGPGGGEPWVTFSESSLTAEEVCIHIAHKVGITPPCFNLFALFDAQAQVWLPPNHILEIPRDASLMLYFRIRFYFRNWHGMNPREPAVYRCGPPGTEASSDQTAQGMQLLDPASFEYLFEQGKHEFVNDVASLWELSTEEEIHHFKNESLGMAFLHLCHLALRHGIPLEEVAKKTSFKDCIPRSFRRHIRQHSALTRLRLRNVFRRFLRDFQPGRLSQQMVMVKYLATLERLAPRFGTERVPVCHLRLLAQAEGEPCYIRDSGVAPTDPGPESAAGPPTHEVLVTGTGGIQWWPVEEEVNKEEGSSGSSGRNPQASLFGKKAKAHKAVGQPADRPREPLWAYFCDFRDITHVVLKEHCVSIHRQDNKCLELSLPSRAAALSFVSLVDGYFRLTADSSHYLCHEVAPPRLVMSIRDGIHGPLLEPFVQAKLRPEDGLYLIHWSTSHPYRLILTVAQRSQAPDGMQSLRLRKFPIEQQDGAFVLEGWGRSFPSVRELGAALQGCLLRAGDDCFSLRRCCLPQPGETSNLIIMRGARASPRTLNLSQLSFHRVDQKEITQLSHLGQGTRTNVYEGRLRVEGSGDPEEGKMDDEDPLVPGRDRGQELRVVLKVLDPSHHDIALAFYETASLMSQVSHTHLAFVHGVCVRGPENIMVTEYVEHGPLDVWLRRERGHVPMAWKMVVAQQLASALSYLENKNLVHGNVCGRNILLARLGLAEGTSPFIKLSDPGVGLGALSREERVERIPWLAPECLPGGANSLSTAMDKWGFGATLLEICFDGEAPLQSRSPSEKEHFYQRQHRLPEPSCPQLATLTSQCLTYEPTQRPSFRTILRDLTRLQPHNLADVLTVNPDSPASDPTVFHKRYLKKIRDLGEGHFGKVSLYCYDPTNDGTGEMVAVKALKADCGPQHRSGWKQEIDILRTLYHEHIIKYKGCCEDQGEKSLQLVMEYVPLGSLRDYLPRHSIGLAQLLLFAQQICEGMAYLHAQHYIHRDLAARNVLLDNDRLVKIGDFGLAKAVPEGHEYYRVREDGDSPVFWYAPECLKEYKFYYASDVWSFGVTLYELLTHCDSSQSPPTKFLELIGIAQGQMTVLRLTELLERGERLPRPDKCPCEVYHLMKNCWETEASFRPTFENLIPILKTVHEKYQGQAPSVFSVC

Sequence of JAK3 (P52333 whole entry): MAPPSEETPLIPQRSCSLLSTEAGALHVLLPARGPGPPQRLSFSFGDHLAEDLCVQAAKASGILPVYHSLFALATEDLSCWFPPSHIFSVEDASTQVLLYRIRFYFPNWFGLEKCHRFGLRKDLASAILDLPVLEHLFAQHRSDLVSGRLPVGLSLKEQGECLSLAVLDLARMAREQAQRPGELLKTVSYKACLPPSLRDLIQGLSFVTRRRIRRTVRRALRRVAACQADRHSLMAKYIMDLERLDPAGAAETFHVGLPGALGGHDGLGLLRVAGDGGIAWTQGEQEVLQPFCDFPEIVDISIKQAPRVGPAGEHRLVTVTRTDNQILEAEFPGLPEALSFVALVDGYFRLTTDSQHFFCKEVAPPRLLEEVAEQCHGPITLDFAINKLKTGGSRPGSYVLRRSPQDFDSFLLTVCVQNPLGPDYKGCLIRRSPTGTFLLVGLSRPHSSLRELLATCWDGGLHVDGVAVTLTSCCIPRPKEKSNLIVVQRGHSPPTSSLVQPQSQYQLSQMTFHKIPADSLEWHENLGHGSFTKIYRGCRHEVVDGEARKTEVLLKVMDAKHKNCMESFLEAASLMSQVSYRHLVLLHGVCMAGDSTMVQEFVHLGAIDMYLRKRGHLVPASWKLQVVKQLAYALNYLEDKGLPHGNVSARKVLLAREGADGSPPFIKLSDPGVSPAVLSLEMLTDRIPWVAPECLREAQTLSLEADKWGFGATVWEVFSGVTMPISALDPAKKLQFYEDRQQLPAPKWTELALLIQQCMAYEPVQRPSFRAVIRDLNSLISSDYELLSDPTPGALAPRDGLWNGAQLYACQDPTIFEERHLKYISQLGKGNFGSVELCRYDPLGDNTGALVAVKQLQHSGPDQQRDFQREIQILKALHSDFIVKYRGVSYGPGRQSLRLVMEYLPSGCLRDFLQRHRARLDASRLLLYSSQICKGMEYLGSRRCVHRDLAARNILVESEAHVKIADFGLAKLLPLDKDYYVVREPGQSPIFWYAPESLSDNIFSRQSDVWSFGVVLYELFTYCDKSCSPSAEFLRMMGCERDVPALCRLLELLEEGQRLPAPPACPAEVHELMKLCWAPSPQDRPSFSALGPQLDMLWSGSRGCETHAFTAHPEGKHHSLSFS

With `COc1ccc(C(O)(CN[C@H]2CC[C@H](c3nnn4cnc5[nH]ccc5c34)CC2)C(F)(F)F)cc1OC` (stereo partly drawn) [390b, 3-{[trans-4-(7H-pyrrolo[3,2-e][1,2,3]triazolo[1,5-c]pyrimidin-1-yl)cyclohexyl]amino}-2-(3,4-dimethoxyphenyl)-1,1,1-trifluoropropan-2-ol], the half-maximal inhibitory concentration (IC50) at JAK2 (ATP 100 μM) amounted to 0.089 µM; on JAK3 (ATP 100 μM), 0.52 µM; against JAK1 it was 0.0024 µM; on Tyk2 it was 0.36 µM.
On to `N#Cc1ccc(CCN[C@H]2CC[C@H](c3nnn4cnc5[nH]ccc5c34)CC2)cc1` [391b, 4-(2-{[trans-4-(7H-pyrrolo[3,2-e][1,2,3]triazolo[1,5-c]pyrimidin-1-yl)cyclohexyl]amino}ethyl)benzonitrile], for which the IC50 against JAK2 (ATP 100 μM) is 0.39 µM; against JAK3 (ATP 100 μM) it was > 1 µM; against JAK1, 0.018 µM; on Tyk2, 0.58 µM.
The like results for `c1cc2c(ncn3nnc([C@H]4CC[C@H](NC5CC5)CC4)c23)[nH]1` [392b, trans-N-cyclopropyl-4-(7H-pyrrolo[3,2-e][1,2,3]triazolo[1,5-c]pyrimidin-1-yl)cyclohexanamine] were, in that order, 0.08 µM, 0.61 µM, 0.014 µM and 0.33 µM.
The like results for `N#CCN[C@H]1CC[C@H](c2nnn3cnc4[nH]ccc4c23)CC1` [393b, 2-{[trans-4-(7H-pyrrolo[3,2-e][1,2,3]triazolo[1,5-c]pyrimidin-1-yl)cyclohexyl]amino}acetonitrile] were, in that order, 0.03 µM, 0.79 µM, 0.0062 µM and 0.38 µM.
The like results for `N#CCCN[C@H]1CC[C@H](c2nnn3cnc4[nH]ccc4c23)CC1` [394b, 3-{[trans-4-(7H-pyrrolo[3,2-e][1,2,3]triazolo[1,5-c]pyrimidin-1-yl)cyclohexyl]amino}propanenitrile] were, in that order, 0.09 µM, > 1 µM, 0.015 µM and > 1 µM.
Consider `FC(F)(F)CN[C@H]1CC[C@H](c2nnn3cnc4[nH]ccc4c23)CC1` [395b, trans-4-(7H-pyrrolo[3,2-e][1,2,3]triazolo[1,5-c]pyrimidin-1-yl)-N-(2,2,2-trifluoroethyl)cyclohexanamine], for which the IC50 against JAK2 (ATP 100 μM) came to 0.01 µM; against JAK3 (ATP 100 μM), 0.61 µM; against JAK1, 0.0022 µM; on Tyk2, 0.15 µM.
Taken in the same sequence, the figures for `c1cc2c(ncn3nnc([C@H]4CC[C@H](NCC5CC5)CC4)c23)[nH]1` [396b, trans-N-(cyclopropylmethyl)-4-(7H-pyrrolo[3,2-e][1,2,3]triazolo[1,5-c]pyrimidin-1-yl)cyclohexanamine] were 0.19 µM, > 1 µM, 0.022 µM and 0.71 µM.
The like results for `CN(C)[C@H]1CC[C@H](c2nnn3cnc4[nH]ccc4c23)CC1` [397b, trans-N,N-dimethyl-4-(7H-pyrrolo[3,2-e][1,2,3]triazolo[1,5-c]pyrimidin-1-yl)cyclohexanamine] were, in that order, 0.21 µM, > 1 µM, 0.023 µM and 0.8 µM.
Taken in the same sequence, the figures for `CN[C@H]1CC[C@H](c2nnn3cnc4[nH]ccc4c23)CC1` [398b, trans-N-methyl-4-(7H-pyrrolo[3,2-e][1,2,3]triazolo[1,5-c]pyrimidin-1-yl)cyclohexanamine] were 0.11 µM, > 1 µM, 0.029 µM and 0.75 µM.
With `N#CC[C@H]1CC[C@@H](c2nnn3cnc4[nH]ccc4c23)CC1` [435a, 2-[cis-4-(7H-Pyrrolo[3,2-e][1,2,3]triazolo[1,5-c]pyrimidin-1-yl)cyclohexyl]acetonitrile], the IC50 on JAK2 (ATP 100 μM) is 0.021 µM; at JAK3 (ATP 100 μM) it was 0.72 µM; against JAK1, 0.0054 µM; against Tyk2 it was 0.17 µM.
The like results for `N#CC[C@H]1CC[C@H](c2nnn3cnc4[nH]ccc4c23)CC1` [435b, 2-[trans-4-(7H-Pyrrolo[3,2-e][1,2,3]triazolo[1,5-c]pyrimidin-1-yl)cyclohexyl]acetonitrile] were, in that order, 0.0025 µM, 0.032 µM, 0.00011 µM and 0.0029 µM.
Taken in the same sequence, the figures for `CC(C#N)[C@H]1CC[C@@H](c2nnn3cnc4[nH]ccc4c23)CC1` (stereo partly drawn) [439a, 2-[cis-4-(7H-Pyrrolo[3,2-e][1,2,3]triazolo[1,5-c]pyrimidin-1-yl)cyclohexyl]propanenitrile] were 0.34 µM, > 1 µM, 0.13 µM and > 1 µM.
Taken in the same sequence, the figures for `CC(C#N)[C@H]1CC[C@H](c2nnn3cnc4[nH]ccc4c23)CC1` (stereo partly drawn) [439b, 2-[trans-4-(7H-Pyrrolo[3,2-e][1,2,3]triazolo[1,5-c]pyrimidin-1-yl)cyclohexyl]propanenitrile] were 0.0067 µM, 0.33 µM, 0.0031 µM and 0.025 µM.
As to `O=C(C[C@H]1CC[C@@H](c2nnn3cnc4[nH]ccc4c23)CC1)NCC(F)(F)F` [442a, 2-[cis-4-(7H-Pyrrolo[3,2-e][1,2,3]triazolo[1,5-c]pyrimidin-1-yl)cyclohexyl]-N-2,2,2-trifluoroethylacetamide], the half-maximal inhibitory concentration (IC50) is 0.061 µM against JAK2 (ATP 100 μM), 0.52 µM against JAK3 (ATP 100 μM), 0.027 µM on JAK1 and 0.79 µM against Tyk2.
The like results for `O=C(C[C@H]1CC[C@H](c2nnn3cnc4[nH]ccc4c23)CC1)NCC(F)(F)F` [442b, 2-[trans-4-(7H-Pyrrolo[3,2-e][1,2,3]triazolo[1,5-c]pyrimidin-1-yl)cyclohexyl]-N-2,2,2-trifluoroethylacetamide] were, in that order, 0.014 µM, 0.1 µM, 0.0032 µM and 0.88 µM.
Taken in the same sequence, the figures for `N#CCNC(=O)C[C@H]1CC[C@@H](c2nnn3cnc4[nH]ccc4c23)CC1` [443a, 2-[cis-4-(7H-Pyrrolo[3,2-e][1,2,3]triazolo[1,5-c]pyrimidin-1-yl)cyclohexyl]-N-(cyanomethyl)acetamide] were 0.06 µM, 0.73 µM, 0.026 µM and 0.54 µM.
On to `N#CCNC(=O)C[C@H]1CC[C@H](c2nnn3cnc4[nH]ccc4c23)CC1` [443b, 2-[trans-4-(7H-Pyrrolo[3,2-e][1,2,3]triazolo[1,5-c]pyrimidin-1-yl)cyclohexyl]-N-(cyanomethyl)acetamide], for which the concentration for half-maximal inhibition (IC50) at JAK2 (ATP 100 μM) was 0.03 µM; against JAK3 (ATP 100 μM), 0.34 µM; against JAK1 it was 0.01 µM; against Tyk2 it was > 1 µM.
Taken in the same sequence, the figures for `Cc1ccccc1-c1nnn2cnc3[nH]ccc3c12` [compound 5] were 0.13 µM, 0.26 µM, 0.02 µM and 0.13 µM.
Turning to `c1cc2c(ncn3nnc(C4CCCCC4)c23)[nH]1` [compound 6], the IC50 at JAK2 (ATP 100 μM) is 0.012 µM; against JAK3 (ATP 100 μM), 0.15 µM; on JAK1, 0.0038 µM; at Tyk2 it was 0.046 µM.
As for `CC1CCCCC1c1nnn2cnc3[nH]ccc3c12` (stereo not shown) [compound 7], the concentration for half-maximal inhibition (IC50) against JAK2 (ATP 100 μM) turned out to be 0.012 µM; against JAK3, 0.055 µM; at JAK1, 0.0042 µM; at Tyk2, 0.056 µM.
For the compound `S=c1[nH]c(C2CCCCC2)c2c3cc[nH]c3ncn12` [compound 8], the concentration for half-maximal inhibition (IC50) against JAK2 (ATP 100 μM) worked out at 0.03 µM; at JAK3 (ATP 100 μM), 0.43 µM; against JAK1, 0.02 µM; against Tyk2 it was 0.036 µM.
For `O=c1[nH]c(C2CCCCC2)c2c3cc[nH]c3ncn12` [compound 9], the concentration for half-maximal inhibition (IC50) against JAK2 (ATP 100 μM) was 0.046 µM; on JAK3, 0.43 µM; at JAK1 it was 0.03 µM; against Tyk2, 0.078 µM.
With `FC(F)(F)c1ccc(CCN2CCC(c3nnn4cnc5[nH]ccc5c34)CC2)cc1` [compound 42], the concentration for half-maximal inhibition (IC50) against JAK2 (ATP 100 μM, Table^a 154) was 0.41 µM; at JAK3 (ATP 100 μM, Table^a 154), > 1 µM; on JAK1 (Table^a 154) it was 0.082 µM; on Tyk2 (Table^a 154), > 1 µM.
With `c1csc(CN2CCC(c3nnn4cnc5[nH]ccc5c34)CC2)n1` [compound 48], the IC50 against JAK2 (ATP 100 μM, Table^a 154) came out at 0.054 µM; against JAK3 (ATP 100 μM, Table^a 154) it was 0.44 µM; against JAK1 (Table^a 154) it was 0.022 µM; against Tyk2 (Table^a 154) it was 0.46 µM.
Regarding `O=C(N[C@H]1CC[C@H](c2nnn3cnc4[nH]ccc4c23)CC1)OCc1ccccc1` [compound 60], the IC50 is 0.032 µM on JAK2; > 1 µM against JAK3 (ATP 100 μM, Table^a 154); 0.0051 µM on JAK1 (Table^a 154); 4.2 µM at Tyk2 (Table^a 154).
On to `c1cc2c(ncn3nnc(C4CCC4)c23)[nH]1` [compound 67], for which the 50% inhibitory concentration (IC50) against JAK2 (ATP 100 μM, Table^a 154) was found to be 0.2 µM; on JAK3 (ATP 100 μM, Table^a 154), 0.65 µM; against JAK1 (Table^a 154) it was 0.052 µM; against Tyk2 (Table^a 154) it was 0.41 µM.
For `N#CC1CCN(C[C@H]2CC[C@H](c3nnn4cnc5[nH]ccc5c34)CC2)CC1` [compound 89], the IC50 at JAK2 (ATP 100 μM, Table^a 154) was 0.2 µM; on JAK3 (ATP 100 μM, Table^a 154) it was > 1 µM; at JAK1 (Table^a 154), 0.025 µM; at Tyk2 (Table^a 154), 0.61 µM.
Regarding `Cc1ccc(CNC[C@H]2CC[C@H](c3nnn4cnc5[nH]ccc5c34)CC2)s1` [compound 106], the concentration for half-maximal inhibition (IC50) at JAK2 (ATP 100 μM, Table^a 154) is 0.041 µM; against JAK3, 0.28 µM; on JAK1 (Table^a 154), 0.0019 µM; against Tyk2 (Table^a 154) it was 0.0036 µM.
With `FCCNC[C@H]1CC[C@H](c2nnn3cnc4[nH]ccc4c23)CC1` [compound 107], the half-maximal inhibitory concentration (IC50) was 0.055 µM against JAK2 (ATP 100 μM, Table^a 154); 0.28 µM on JAK3; 0.0028 µM on JAK1 (Table^a 154); 0.036 µM on Tyk2 (Table^a 154).
Consider `CN(C[C@H]1CC[C@H](c2nnn3cnc4[nH]ccc4c23)CC1)c1ccc(C#N)cc1` [compound 108], for which the IC50 is 0.024 µM at JAK2 (ATP 100 μM, Table^a 154); 0.58 µM at JAK3 (ATP 100 μM, Table^a 154); 0.0039 µM against JAK1 (Table^a 154); 0.58 µM on Tyk2 (Table^a 154).
As to `Fc1ccc(CCNC[C@H]2CC[C@H](c3nnn4cnc5[nH]ccc5c34)CC2)cc1` [compound 111], the IC50 on JAK2 (ATP 100 μM, Table^a 154) is 0.027 µM; against JAK3 (ATP 100 μM, Table^a 154), 0.22 µM; on JAK1 (Table^a 154) it was 0.0019 µM; at Tyk2 (Table^a 154), 0.028 µM.

A word on the IC50: it is the concentration that inhibits the measured activity by half. A higher IC50 goes with a need for much substance.
